Assay results taken from ChEMBL document CHEMBL1133048, “A QSAR study investigating the effect of L-alanine ester variation on the anti-HIV activity of some phosphoramidate derivatives of d4T” (2000).

How the values were obtained:
CCRF-CEM [1] = assay: Effective concentration required to inhibit 50% of HIV-1 induced giant cell formation in CEM cell cultures; assay type: functional, Homo sapiens
CCRF-CEM [2] = assay: Effective concentration required to inhibit 50% of HIV-2 induced giant cell formation in CEM cell cultures; assay type: functional, Homo sapiens
CCRF-CEM [3] = assay: Cytotoxic concentration required to inhibit CEM cell proliferation by 50%; assay type: functional; settings: Homo sapiens

Row | Compound | Log 1/EC50 (CCRF-CEM [1]) | Log 1/EC50 (CCRF-CEM [2]) | CC50 (CCRF-CEM [3])
1 | COC(=O)C(C)NP(=O)(OC[C@@H]1C=C[C@H](n2cc(C)c(=O)[nH]c2=O)O1)Oc1ccccc1 (stereo partly drawn) | 1.13 | 1.13 | 100 µM
2 | Cc1cn(C2C=CC(COP(=O)(NC(C)C(=O)Oc3ccccc3)Oc3ccccc3)O2)c(=O)[nH]c1=O (stereo not drawn) | 1.6 | 1.1 | –
3 | Cc1cn(C2C=CC(COP(=O)(NC(C)C(=O)OCC3CCCCC3)Oc3ccccc3)O2)c(=O)[nH]c1=O (stereo not drawn) | 1.4 | – | 12.1 µM
4 | Cc1cn(C2C=CC(COP(=O)(NC(C)C(=O)OC3CCCCC3)Oc3ccccc3)O2)c(=O)[nH]c1=O (stereo not drawn) | 1.19 | 1.13 | 51.4 µM
5 | Cc1cn(C2C=CC(COP(=O)(NC(C)C(=O)OCc3cccc4ccccc34)Oc3ccccc3)O2)c(=O)[nH]c1=O (stereo not drawn) | 1.52 | 1.22 | 21.6 µM
6 | CCCCOC(=O)C(C)NP(=O)(OCC1C=CC(n2cc(C)c(=O)[nH]c2=O)O1)Oc1ccccc1 (stereo not drawn) | – | – | 60 µM
7 | Cc1cn(C2C=CC(COP(=O)(NC(C)C(=O)OCCc3ccccc3)Oc3ccccc3)O2)c(=O)[nH]c1=O (stereo not drawn) | 0.071 | 0.155 | 250 µM
8 | CCCCCCOC(=O)C(C)NP(=O)(OCC1C=CC(n2cc(C)c(=O)[nH]c2=O)O1)Oc1ccccc1 (stereo not drawn) | 1.22 | 1.26 | 48 µM
9 | Cc1cn(C2C=CC(COP(=O)(NC(C)C(=O)OCCCc3ccccc3)Oc3ccccc3)O2)c(=O)[nH]c1=O (stereo not drawn) | 0 | -0.217 | 250 µM
10 | Cc1cn(C2C=CC(COP(=O)(NC(C)C(=O)OC(C)(C)C)Oc3ccccc3)O2)c(=O)[nH]c1=O (stereo not drawn) | 0.071 | -0.041 | 250 µM
11 | Cc1cn(C2C=CC(COP(=O)(NC(C)C(=O)OCC(C)(C)C)Oc3ccccc3)O2)c(=O)[nH]c1=O (stereo not drawn) | 1.3 | 1.35 | 43.5 µM
12 | CCCCCOC(=O)C(C)NP(=O)(OCC1C=CC(n2cc(C)c(=O)[nH]c2=O)O1)Oc1ccccc1 (stereo not drawn) | 1.35 | 1.1 | 40.5 µM
13 | CCCOC(=O)C(C)NP(=O)(OCC1C=CC(n2cc(C)c(=O)[nH]c2=O)O1)Oc1ccccc1 (stereo not drawn) | 1.33 | 1.1 | 40 µM
14 | CCOC(=O)C(C)NP(=O)(OCC1C=CC(n2cc(C)c(=O)[nH]c2=O)O1)Oc1ccccc1 (stereo not drawn) | 1 | 1.16 | 55 µM
